This is an account of results in patent US20140057953A1, “BIARYL DERIVATIVES AS SELECTIVE 17BETA-HYDROXYSTEROID DEHYDROGENASE TYPE 2 INHIBITORS” (priority 2011, published 2014).

Like-named read-outs stand apart in the source and are kept apart here.

The target in assay [1] is T1, 17β-HSD2 (Homo sapiens, UniProt P37059).
T1 sequence (P37059 1-387): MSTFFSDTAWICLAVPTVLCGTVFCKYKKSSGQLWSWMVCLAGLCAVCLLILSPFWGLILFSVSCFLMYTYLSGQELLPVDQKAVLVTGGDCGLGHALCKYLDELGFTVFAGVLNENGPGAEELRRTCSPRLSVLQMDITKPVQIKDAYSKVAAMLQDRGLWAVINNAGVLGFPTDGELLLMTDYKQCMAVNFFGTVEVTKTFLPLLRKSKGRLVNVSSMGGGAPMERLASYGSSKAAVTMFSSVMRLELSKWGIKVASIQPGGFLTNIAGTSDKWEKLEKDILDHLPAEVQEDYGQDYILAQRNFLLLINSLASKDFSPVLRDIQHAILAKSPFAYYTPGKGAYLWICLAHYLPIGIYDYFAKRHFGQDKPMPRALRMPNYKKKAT
The following applies: cited from earlier work.

Assay [2] deals with T1, 17β-HSD2. Description: Inhibition of 17β-HSD2 in MDA-MB-231 cellular assay. Format: cell-based. The following applies: MDA-MB-231 cells, substrate [3H]-E2 200 nM. The procedure: [^3H-E2] (200 nM) is used as substrate, and is incubated with the inhibitor for 3.5 h at 37° C. After ether extraction, substrate and product are separated by HPLC and detected with a radioflow detector following the method previously described.

The target of assay [3] is T2, ERα (Homo sapiens, UniProt P03372).
T2 sequence (P03372 1-595): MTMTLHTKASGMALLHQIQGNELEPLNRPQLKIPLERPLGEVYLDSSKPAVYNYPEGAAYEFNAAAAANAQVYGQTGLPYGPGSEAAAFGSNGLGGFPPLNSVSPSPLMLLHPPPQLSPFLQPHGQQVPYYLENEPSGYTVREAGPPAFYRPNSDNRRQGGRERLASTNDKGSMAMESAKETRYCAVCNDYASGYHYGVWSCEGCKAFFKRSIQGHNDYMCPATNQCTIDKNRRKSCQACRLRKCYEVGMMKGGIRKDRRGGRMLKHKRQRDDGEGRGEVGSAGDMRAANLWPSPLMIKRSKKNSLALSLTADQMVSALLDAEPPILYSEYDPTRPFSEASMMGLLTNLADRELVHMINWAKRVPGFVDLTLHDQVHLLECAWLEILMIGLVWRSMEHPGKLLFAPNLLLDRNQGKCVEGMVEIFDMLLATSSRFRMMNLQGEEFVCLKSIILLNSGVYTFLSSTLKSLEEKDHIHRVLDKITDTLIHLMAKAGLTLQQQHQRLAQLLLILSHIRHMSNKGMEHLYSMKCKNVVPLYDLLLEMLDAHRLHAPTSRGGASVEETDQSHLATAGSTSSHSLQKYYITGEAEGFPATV
Description: ER affinity assay (ERα), [3H]-E2 displacement. The following applies: Relative Binding Affinity, E2 = 100%; recombinant human protein. The procedure:
(§1) The binding affinity of selected compounds to the ERα and ERβ was determined according to Zimmermann et al. (Zimmermann, J. et al., 3. Steroid Biochem. Mol. Biol., 94:57-66 (2005)) using recombinant human proteins. Briefly, 0.25 μM of ERα or ERβ, respectively, were incubated with [^3H]-E2 (10 nM) and test compound for 1 h at room temperature. The potential inhibitors were dissolved in DMSO (5% final concentration). Evaluation of non-specific-binding was performed with diethylstilbestrol (10 μM). After incubation, ligand-receptor complexes were selectively bound to hydroxyapatite (5 g/60 ml TE-buffer). The formed complex was separated, washed and resuspended in ethanol. For radiodetection, scintillator cocktail (Quickszint 212, Zinsser Analytic, Frankfurt) was added and the samples were measured in a liquid scintillation counter (Rack Beta Primo 1209, Wallac, Turku). […] The compound concentration to displace 50% of the receptor bound [^3H]-E2 were determined. Unlabelled E2 was used as a reference. For determination of the relative binding affinity (RBA) the ratio was calculated according to the following equation: […]
(§2) After the assay was established and validated a modification was made to increase throughput. […] Results were reported as RBA ranges.

In assay [4] the target is T3, 17β-HSD1 (Homo sapiens, UniProt P14061).
T3 construct: For the partial purification of 17β-HSD1, the cytosolic fraction was precipitated with ammonium sulfate; from tissue; host or cells: human placenta, cytosolic fraction
T3 sequence (P14061 1-328): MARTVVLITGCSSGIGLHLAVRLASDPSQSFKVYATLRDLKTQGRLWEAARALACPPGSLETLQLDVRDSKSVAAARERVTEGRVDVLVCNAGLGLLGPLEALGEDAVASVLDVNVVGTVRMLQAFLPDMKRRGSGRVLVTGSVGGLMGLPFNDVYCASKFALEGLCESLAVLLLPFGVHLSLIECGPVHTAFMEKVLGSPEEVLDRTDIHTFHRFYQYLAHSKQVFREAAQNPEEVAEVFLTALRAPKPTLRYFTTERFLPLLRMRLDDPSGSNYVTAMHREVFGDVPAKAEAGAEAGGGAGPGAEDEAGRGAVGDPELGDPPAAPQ
Description: Inhibition of 17β-HSD1 in cell-free assay. Format: biochemical. The following applies: human placenta, cytosolic fraction, substrate E1 500 nM, cofactor NADH 500 μM. The procedure: (§3) Fresh human placenta was homogenized. Cytosolic and microsomal fractions were separated by centrifugation at 1000 g, 10000 g and 150000 g. 17β-HSD2 was obtained directly from the microsomal fraction. For the partial purification of 17β-HSD1, the cytosolic fraction was precipitated with ammonium sulfate. Aliquots containing 17β-HSD1 or 17β-HSD2 were stored frozen.
The 17β-HSD1 inhibition assay was performed similarly to the 17β-HSD2 test. The cytosolic fraction was incubated with NADH [500 μM], test compound and a mixture of unlabelled- and [^3H]-E1 (final concentration: 500 nM, 0.15 μCi) for 10 min at 37° C. Further treatment of the samples and HPLC separation was carried out as mentioned above for 17β-HSD2.

Assay [5] has as its target ERβ (Homo sapiens, UniProt Q92731). Description: ER affinity assay (ERβ), [3H]-E2 displacement. The following applies: Relative Binding Affinity, E2 = 100%; recombinant human protein. The procedure: as §1, §2
Assay [6] concerns the target T1, 17β-HSD2. Description: Inhibition of 17β-HSD2 in cell-free assay. The format is biochemical. The arrangement: 17β-HSD2 was obtained directly from the microsomal fraction; from tissue; host or cells: human placenta, microsomal fraction. The following applies: human placenta, microsomal fraction, substrate E2 500 nM, cofactor NAD+ 1500 μM. The procedure:
as §3
Inhibitor stock solutions were prepared in DMSO. Final concentration of DMSO was adjusted to 1% in all samples. The enzymatic reaction was started by addition of a mixture of unlabelled- and [^3H]-E2 (final concentration: 500 nM, 0.11 μCi). After 20 min at 37° C., the incubation was stopped with HgCl2 and the mixture was extracted with ether. After evaporation, the steroids were dissolved in acetonitrile. E1 and E2 were separated using acetonitrile/water (45:55) as mobile phase in a C18 RP chromatography column (Nucleodur C18, 3 μm, Macherey-Nagel, Duren) connected to a HPLC-system (Agilent 1100 Series, Agilent Technologies, Waldbronn). Detection and quantification of the steroids were performed using a radioflow detector (Berthold Technologies, Bad Wildbad). The conversion rate was calculated according to the following equation: […]

Assay [7] deals with osteoporosis model. The following applies: monkeys; cited from earlier work.

Sequence of ERβ (Q92731 whole entry): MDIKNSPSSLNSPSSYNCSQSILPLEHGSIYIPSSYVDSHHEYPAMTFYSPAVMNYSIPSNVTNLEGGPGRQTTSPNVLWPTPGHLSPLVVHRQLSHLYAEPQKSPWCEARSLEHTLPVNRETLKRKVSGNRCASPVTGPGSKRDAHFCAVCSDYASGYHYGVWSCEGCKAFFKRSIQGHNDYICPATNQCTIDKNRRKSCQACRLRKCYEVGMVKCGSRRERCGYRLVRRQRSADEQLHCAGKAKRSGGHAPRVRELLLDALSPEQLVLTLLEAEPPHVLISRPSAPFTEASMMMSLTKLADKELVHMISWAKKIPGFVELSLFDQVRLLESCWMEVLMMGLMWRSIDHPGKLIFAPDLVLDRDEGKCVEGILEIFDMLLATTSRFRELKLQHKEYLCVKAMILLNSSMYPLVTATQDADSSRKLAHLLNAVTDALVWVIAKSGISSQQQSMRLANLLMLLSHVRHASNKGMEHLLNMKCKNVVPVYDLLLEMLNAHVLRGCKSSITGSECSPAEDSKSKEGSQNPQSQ

Regarding `C[C@]12CCC3c4ccc(O)cc4CCC3C1CC[C@@]21CCCC(=O)O1` (stereo partly shown) [C17-spirolactone 1], the “inhibitory activity (17β-HSD2)” value was 40% in assay [1] (at 100 nM) and 70% in assay [1] (at 1 μM).

Regarding `CN(Cc1cccc(O)c1)C(=O)c1ccc(-c2ccccc2O)s1` [compound 28, N-(3-Hydroxybenzyl)-5-(2-hydroxyphenyl)-N-methylthiophene-2-carboxamide], in assay [2], the inhibition at 1 µM came to 75%. In assay [3], the “ERα RBA (%)” value is reported as less than 0.1%. The IC50 worked out at 2.98 µM in assay [4] and 0.148 µM in assay [6]. In addition, in assay [5], the “ERβ RBA (%)” value was less than 0.1%.

Turning to `COc1ccc(-c2ccc(C(=O)N(C)Cc3cccc(O)c3)s2)cc1` [compound 39, N-(3-Hydroxybenzyl)-5-(4-methoxyphenyl)-N-methylthiophene-2-carboxamide], in assay [2], the inhibition at 1 µM was found to be 88%. In addition, the “ERα RBA (%)” value in assay [3] is less than 0.1%. Moreover, the IC50 in assay [4] is greater than 40 µM; in assay [6] it was 0.161 µM. For the same molecule, the “ERβ RBA (%)” value in assay [5] is reported as less than 0.1%.

`CN(Cc1cccc(O)c1)C(=O)c1ccc(-c2cccc(N(C)C)c2)s1` [compound 40, 5-(3-(Dimethylamino)phenyl)-N-(3-hydroxybenzyl)-N-methylthiophene-2-carboxamide]: the “ERα RBA (%)” value in assay [3] is less than 0.1%. Moreover, the IC50 came out at 18.6 µM in assay [4] and 0.246 µM in assay [6]. Moreover, in assay [5], the “ERβ RBA (%)” value was less than 0.1%.

In the case of `COc1cccc(-c2ccc(C(=O)N(C)Cc3cccc(O)c3)s2)c1F` [compound 43, 5-(2-Fluoro-3-methoxyphenyl)-N-(3-hydroxybenzyl)-N-methylthiophene-2-carboxamide], the “ERα RBA (%)” value in assay [3] is given as less than 0.1%. The figures for the IC50 in assay [4] and in assay [6] were 4.45 µM and 0.061 µM, respectively. For the same molecule, the “ERβ RBA (%)” value in assay [5] is recorded as less than 0.1%.

Take `Cc1cccc(-c2ccc(C(=O)N(C)Cc3cccc(O)c3)s2)c1` [compound 46, N-(3-Hydroxybenzyl)-N-methyl-5-m-tolylthiophene-2-carboxamide]: the “ERα RBA (%)” value in assay [3] is less than 0.1%. Besides, the half-inhibitory concentration (IC50) amounted to 10.6 µM in assay [4] and 0.163 µM in assay [6]. For the same molecule, the “ERβ RBA (%)” value in assay [5] is less than 0.1%.

In assay [2], `COc1cccc(N(C)C(=O)c2ccc(-c3ccccc3)s2)c1` [compound 51, N-(3-Methoxyphenyl)-N-methyl-5-phenylthiophene-2-carboxamide] had an inhibition at 1 µM of 67%. In assay [3], the “ERα RBA (%)” value was less than 0.1%. Besides, the IC50 in assay [4] turned out to be 4.34 µM; in assay [6], 0.207 µM. The “ERβ RBA (%)” value in assay [5] is listed as less than 0.1%.

`COc1cccc(N(C)C(=O)c2ccc(-c3cccc(OC)c3F)s2)c1` [compound 56, 5-(2-Fluoro-3-methoxyphenyl)-N-(3-methoxyphenyl)-N-methylthiophene-2-carboxamide] returned an inhibition at 1 µM in assay [2] of 70%. In addition, the “ERα RBA (%)” value in assay [3] is less than 0.1%. In assay [5], the “ERβ RBA (%)” value is recorded as less than 0.1%. The molecule also displayed an IC50 in assay [6] of 0.062 µM.

On to `COc1cccc(N(C)C(=O)c2ccc(-c3cccc(N(C)C)c3)s2)c1` [compound 58, 5-(3-(Dimethylamino)phenyl)-N-(3-methoxyphenyl)-N-methylthiophene-2-carboxamide], for which, in assay [3], the “ERα RBA (%)” value was less than 0.1%. The results for the IC50 in assay [4] and in assay [6] were 10.6 µM and 0.169 µM, respectively. Besides, the “ERβ RBA (%)” value in assay [5] is recorded as less than 0.1%.

Turning to `COc1cccc(N(C)C(=O)c2ccc(-c3ccc(OC)c(F)c3)s2)c1` [compound 61, 5-(3-Fluoro-4-methoxyphenyl)-N-(3-methoxyphenyl)-N-methylthiophene-2-carboxamide], the “ERα RBA (%)” value in assay [3] is given as less than 0.1%. The IC50 in assay [4] was greater than 40 µM; in assay [6], 0.242 µM. Besides, the “ERβ RBA (%)” value in assay [5] is less than 0.1%.

In assay [2], `COc1cccc(-c2ccc(C(=O)N(C)c3cccc(C)c3)s2)c1` [compound 70, 5-(3-Methoxyphenyl)-N-methyl-N-m-tolylthiophene-2-carboxamide] returned an inhibition at 1 µM of 50%. In addition, in assay [3], the “ERα RBA (%)” value is on record as less than 0.1%. In addition, the values for the IC50 in assay [4] and in assay [6] were 11.5 µM and 0.207 µM, respectively. Further, in assay [5], the “ERβ RBA (%)” value is recorded as less than 0.1%.

As to `Cc1cccc(N(C)C(=O)c2ccc(-c3cccc(O)c3)s2)c1` [compound 71, 5-(3-Hydroxyphenyl)-N-methyl-N-m-tolylthiophene-2-carboxamide], the “ERα RBA (%)” value in assay [3] is given as less than 0.1%. The IC50 in assay [4] came to 6.8 µM; in assay [6] it was 0.644 µM. Also, the “ERβ RBA (%)” value in assay [5] is listed as less than 0.1%.

Take `COc1cccc(-c2ccc(C(=O)N(C)c3cccc(C(F)(F)F)c3)s2)c1` [compound 75, 5-(3-Methoxyphenyl)-N-methyl-N-(3-(trifluoromethyl)phenyl)thiophene-2-carboxamide]: in assay [3], the “ERα RBA (%)” value is less than 0.1%. Moreover, the figures for the IC50 in assay [4] and in assay [6] were 12.3 µM and 0.721 µM, respectively. The “ERβ RBA (%)” value in assay [5] is less than 0.1%.

For the molecule `CN1C(=O)C[C@H](c2ccccc2)[C@@H]1[C@H](O)c1ccc(-c2cccnc2)s1` [inhibitor 3], in assay [7], the “effect on local level of E2 and T in bones” value is “helps to maintain a sufficient local level of E2 and T in bones”.
